Experimental data taken from ChEMBL document CHEMBL1201862, “PubChem BioAssay data set” (2004).
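Interpolation was linear, between the two tested concentrations surrounding the appropriate level; five concentrations were tested over 48 hours in 96-well plates. GI50 marks 50% less growth.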 Calls of active or inactive are those of the source. Rule as the data show it: active = GI50 up to about 1.1 µM and inactive = higher.

Tests used:
Assay in all cases: growth of human tumour cells (NCI), 48 h
CAKI-1 = system: CAKI-1
COLO 205 = system: COLO 205
HCT-116 = system: HCT-116
HL-60 = system: HL-60
IGROV-1 = system: IGROV-1
KM12 = system: KM12
NCI-H226 = system: NCI-H226
NCI-H23 = system: NCI-H23
NCI-H460 = system: NCI-H460
SF-295 = system: SF-295
SF-539 = system: SF-539
SK-OV-3 = system: SK-OV-3
SN12C = system: SN12C
SNB-19 = system: SNB-19
SNB-75 = system: SNB-75
SW-620 = system: SW-620
TK-10 = system: TK-10
RPMI-8226 = system: RPMI-8226

SMILES | GI50 (CAKI-1) | GI50 (COLO 205) | GI50 (HCT-116) | GI50 (HL-60) | GI50 (IGROV-1) | GI50 (KM12) | GI50 (NCI-H226) | GI50 (NCI-H23) | GI50 (NCI-H460) | GI50 (SF-295) | GI50 (SF-539) | GI50 (SK-OV-3) | GI50 (SN12C) | GI50 (SNB-19) | GI50 (SNB-75) | GI50 (SW-620) | GI50 (TK-10) | GI50 (RPMI-8226)
COCCOCOc1ccc(OCOCCOC)c2c1C(=O)c1ccccc1C2=O | 33.7 µM (inactive) | 54.1 µM (inactive) | 29.4 µM (inactive) | 18.4 µM (inactive) | 99.1 µM (inactive) | > 75.9 µM (inactive) | 90.2 µM (inactive) | 74.1 µM (inactive) | 24.3 µM (inactive) | > 100 µM (inactive) | 36.3 µM (inactive) | > 100 µM (inactive) | 51.4 µM (inactive) | > 87.9 µM (inactive) | 99.3 µM (inactive) | 36.5 µM (inactive) | > 73.6 µM (inactive) | –
COC(=O)CCC(=O)N1C/C(=C\c2ccccc2)C(=O)/C(=C/c2ccccc2)C1 | 1.75 µM (inactive) | 2.06 µM (inactive) | 0.41 µM (active) | – | 1.79 µM (inactive) | 0.807 µM (active) | 3.41 µM (inactive) | 2.14 µM (inactive) | 2.43 µM (inactive) | 2.31 µM (inactive) | 2.94 µM (inactive) | 4.16 µM (inactive) | 1.86 µM (inactive) | 3.82 µM (inactive) | 2.29 µM (inactive) | 0.191 µM (active) | 4.41 µM (inactive) | 0.416 µM (active)
CC(=O)CN(Cc1cc(C)c2c(c1)c1ccccc1n2Cc1ccccc1)S(=O)(=O)c1ccc(C)cc1 | > 100 µM (inactive) | > 100 µM (inactive) | > 100 µM (inactive) | > 100 µM (inactive) | > 100 µM (inactive) | > 100 µM (inactive) | > 100 µM (inactive) | > 100 µM (inactive) | – | > 100 µM (inactive) | > 100 µM (inactive) | > 100 µM (inactive) | – | > 100 µM (inactive) | > 100 µM (inactive) | > 100 µM (inactive) | > 100 µM (inactive) | > 100 µM (inactive)
COc1cccc(/C=N/NC(N)=O)c1O | > 100 µM (inactive) | > 100 µM (inactive) | > 100 µM (inactive) | – | > 100 µM (inactive) | > 100 µM (inactive) | > 100 µM (inactive) | > 100 µM (inactive) | > 100 µM (inactive) | > 100 µM (inactive) | > 100 µM (inactive) | > 100 µM (inactive) | > 100 µM (inactive) | > 100 µM (inactive) | > 100 µM (inactive) | > 100 µM (inactive) | > 100 µM (inactive) | > 100 µM (inactive)
COc1cc2c(cc1O)[C@H](C)C(c1ccc(OC)c(OC)c1)O2 (stereo not given in full) | 3.67 µM (inactive) | 20.4 µM (inactive) | 3.6 µM (inactive) | 3.41 µM (inactive) | 2.04 µM (inactive) | 16.7 µM (inactive) | 12.4 µM (inactive) | 10.6 µM (inactive) | 2.13 µM (inactive) | 6.56 µM (inactive) | 4.85 µM (inactive) | 9.48 µM (inactive) | – | 1.68 µM (inactive) | 1.95 µM (inactive) | 4.2 µM (inactive) | 15.7 µM (inactive) | 8.2 µM (inactive)
CCOC(=O)c1c(N)sc2c1C(C(=O)OCC)CC2 (stereo not given) | – | > 100 µM (inactive) | 48.4 µM (inactive) | 31.5 µM (inactive) | 44.7 µM (inactive) | > 100 µM (inactive) | > 100 µM (inactive) | > 100 µM (inactive) | 62.1 µM (inactive) | – | – | – | 40.5 µM (inactive) | > 100 µM (inactive) | 79.3 µM (inactive) | > 100 µM (inactive) | > 100 µM (inactive) | 45.3 µM (inactive)
OC1C2CCC1C1C3C=CC(C3)C21 (stereo not given) | 64.9 µM (inactive) | > 100 µM (inactive) | 79.4 µM (inactive) | 38.1 µM (inactive) | > 100 µM (inactive) | 99.3 µM (inactive) | 58.5 µM (inactive) | 52.1 µM (inactive) | > 100 µM (inactive) | 61.5 µM (inactive) | – | > 100 µM (inactive) | – | > 100 µM (inactive) | 46.6 µM (inactive) | > 100 µM (inactive) | > 100 µM (inactive) | 42.9 µM (inactive)
CCCCCCCCCCCCCCC1OC(=O)c2ccccc21 (stereo not given) | – | – | 34.6 µM (inactive) | 15.6 µM (inactive) | 89.5 µM (inactive) | 39.1 µM (inactive) | 53.3 µM (inactive) | 43.8 µM (inactive) | 60.8 µM (inactive) | > 100 µM (inactive) | > 100 µM (inactive) | > 100 µM (inactive) | 24.5 µM (inactive) | > 100 µM (inactive) | > 100 µM (inactive) | 63.4 µM (inactive) | > 100 µM (inactive) | 32.2 µM (inactive)
CC(=O)OCCOCNC(=S)N/N=C(\C)c1cccs1 | – | > 100 µM (inactive) | > 100 µM (inactive) | > 100 µM (inactive) | > 100 µM (inactive) | > 100 µM (inactive) | > 100 µM (inactive) | > 100 µM (inactive) | > 100 µM (inactive) | > 100 µM (inactive) | > 100 µM (inactive) | > 100 µM (inactive) | > 100 µM (inactive) | > 100 µM (inactive) | > 100 µM (inactive) | > 100 µM (inactive) | > 100 µM (inactive) | > 100 µM (inactive)
CCc1ccccc1NC(=O)C(=O)C1C(=O)N(c2ccccc2)N=C1N (stereo not given) | > 100 µM (inactive) | – | > 100 µM (inactive) | 72.4 µM (inactive) | > 100 µM (inactive) | > 100 µM (inactive) | > 100 µM (inactive) | > 100 µM (inactive) | > 100 µM (inactive) | > 100 µM (inactive) | > 100 µM (inactive) | – | > 100 µM (inactive) | > 100 µM (inactive) | > 100 µM (inactive) | > 100 µM (inactive) | > 100 µM (inactive) | > 100 µM (inactive)
COc1ccccc1CCc1cc(OC)c(OC)c(OC)c1 | 57.8 µM (inactive) | 42.2 µM (inactive) | 37.1 µM (inactive) | 11 µM (inactive) | 49.9 µM (inactive) | 38.5 µM (inactive) | 39.8 µM (inactive) | – | 44.1 µM (inactive) | 51.4 µM (inactive) | 65.3 µM (inactive) | – | 61.9 µM (inactive) | 75.9 µM (inactive) | 41.6 µM (inactive) | 47.5 µM (inactive) | 76.7 µM (inactive) | 20.2 µM (inactive)
O=[N+]([O-])c1ccc(-c2cnc3ccccn23)cc1 | 62.4 µM (inactive) | > 100 µM (inactive) | > 100 µM (inactive) | 44.2 µM (inactive) | – | > 100 µM (inactive) | > 100 µM (inactive) | > 100 µM (inactive) | > 100 µM (inactive) | > 100 µM (inactive) | > 100 µM (inactive) | 62.5 µM (inactive) | 61.2 µM (inactive) | > 100 µM (inactive) | 30.6 µM (inactive) | > 100 µM (inactive) | – | 52.6 µM (inactive)
Cn1nc(-c2ccccc2NC(=O)C(F)(F)F)c(=O)n(C)c1=S | 33.6 µM (inactive) | > 10 µM (inactive) | 38.1 µM (inactive) | – | 63.2 µM (inactive) | 25.7 µM (inactive) | 38.5 µM (inactive) | 29.2 µM (inactive) | 23.5 µM (inactive) | 58.2 µM (inactive) | 29.4 µM (inactive) | > 100 µM (inactive) | 42.3 µM (inactive) | 38.8 µM (inactive) | 5.89 µM (inactive) | 34.5 µM (inactive) | 32.3 µM (inactive) | –
COc1ccc(-c2ccccc2)c2[nH]c3c(c12)CCNC3=O | > 100 µM (inactive) | > 100 µM (inactive) | > 100 µM (inactive) | > 100 µM (inactive) | > 100 µM (inactive) | > 100 µM (inactive) | > 100 µM (inactive) | > 100 µM (inactive) | > 100 µM (inactive) | > 100 µM (inactive) | > 100 µM (inactive) | – | > 100 µM (inactive) | > 100 µM (inactive) | > 100 µM (inactive) | > 100 µM (inactive) | > 100 µM (inactive) | > 100 µM (inactive)
CC(CNCCCNCCNCCCNCO)[N+](=O)[O-] (stereo not given) | 6.11 µM (inactive) | 6.52 µM (inactive) | 10.8 µM (inactive) | 3.89 µM (inactive) | 20.4 µM (inactive) | 16.1 µM (inactive) | – | 15 µM (inactive) | 17.2 µM (inactive) | > 100 µM (inactive) | 15.4 µM (inactive) | > 100 µM (inactive) | 15.1 µM (inactive) | > 100 µM (inactive) | 20.8 µM (inactive) | 3.6 µM (inactive) | 2.49 µM (inactive) | 5.06 µM (inactive)
COc1cc2cccc(NC(=O)c3cc(OC)c(OC)c(OC)c3Br)c2cc1OC | 17.6 µM (inactive) | 12.9 µM (inactive) | 11.9 µM (inactive) | – | 14.4 µM (inactive) | 11.1 µM (inactive) | – | 8 µM (inactive) | 12.5 µM (inactive) | 12.5 µM (inactive) | 15.4 µM (inactive) | 22.5 µM (inactive) | 16.6 µM (inactive) | 14.2 µM (inactive) | 26.9 µM (inactive) | 24.8 µM (inactive) | 29.2 µM (inactive) | 2.45 µM (inactive)
COc1ccc(NC(=O)CSc2nnc(-c3ccc(NC(C)=O)cc3)o2)cc1 | – | 19.4 µM (inactive) | 14.6 µM (inactive) | 21.9 µM (inactive) | 15.5 µM (inactive) | 15.1 µM (inactive) | 24.3 µM (inactive) | 10.7 µM (inactive) | 15.5 µM (inactive) | 15.3 µM (inactive) | > 10 µM (inactive) | 44.1 µM (inactive) | 20 µM (inactive) | – | 63.1 µM (inactive) | – | 21.7 µM (inactive) | –
